In ChEMBL document CHEMBL4229524, “Design, synthesis and preclinical evaluation of 5-methyl-N4-aryl-furo[2,3-d]pyrimidines as single agents with combination chemotherapy potential” (Bioorg Med Chem Lett, 2018):

Assays:
[1] = target: Platelet-derived growth factor receptor beta (Homo sapiens, UniProt P09619); assay: Inhibition of PDGF-BB-induced PDGFRbeta activation in human SH-SY5Y cells pretreated for 60 mins followed by PDGF-BB addition and measured after 10 mins by ELISA; format: cell-based
[2] = target: Epidermal growth factor receptor (Homo sapiens, UniProt P00533); format: cell-based
Chain of Epidermal growth factor receptor (P00533 whole entry): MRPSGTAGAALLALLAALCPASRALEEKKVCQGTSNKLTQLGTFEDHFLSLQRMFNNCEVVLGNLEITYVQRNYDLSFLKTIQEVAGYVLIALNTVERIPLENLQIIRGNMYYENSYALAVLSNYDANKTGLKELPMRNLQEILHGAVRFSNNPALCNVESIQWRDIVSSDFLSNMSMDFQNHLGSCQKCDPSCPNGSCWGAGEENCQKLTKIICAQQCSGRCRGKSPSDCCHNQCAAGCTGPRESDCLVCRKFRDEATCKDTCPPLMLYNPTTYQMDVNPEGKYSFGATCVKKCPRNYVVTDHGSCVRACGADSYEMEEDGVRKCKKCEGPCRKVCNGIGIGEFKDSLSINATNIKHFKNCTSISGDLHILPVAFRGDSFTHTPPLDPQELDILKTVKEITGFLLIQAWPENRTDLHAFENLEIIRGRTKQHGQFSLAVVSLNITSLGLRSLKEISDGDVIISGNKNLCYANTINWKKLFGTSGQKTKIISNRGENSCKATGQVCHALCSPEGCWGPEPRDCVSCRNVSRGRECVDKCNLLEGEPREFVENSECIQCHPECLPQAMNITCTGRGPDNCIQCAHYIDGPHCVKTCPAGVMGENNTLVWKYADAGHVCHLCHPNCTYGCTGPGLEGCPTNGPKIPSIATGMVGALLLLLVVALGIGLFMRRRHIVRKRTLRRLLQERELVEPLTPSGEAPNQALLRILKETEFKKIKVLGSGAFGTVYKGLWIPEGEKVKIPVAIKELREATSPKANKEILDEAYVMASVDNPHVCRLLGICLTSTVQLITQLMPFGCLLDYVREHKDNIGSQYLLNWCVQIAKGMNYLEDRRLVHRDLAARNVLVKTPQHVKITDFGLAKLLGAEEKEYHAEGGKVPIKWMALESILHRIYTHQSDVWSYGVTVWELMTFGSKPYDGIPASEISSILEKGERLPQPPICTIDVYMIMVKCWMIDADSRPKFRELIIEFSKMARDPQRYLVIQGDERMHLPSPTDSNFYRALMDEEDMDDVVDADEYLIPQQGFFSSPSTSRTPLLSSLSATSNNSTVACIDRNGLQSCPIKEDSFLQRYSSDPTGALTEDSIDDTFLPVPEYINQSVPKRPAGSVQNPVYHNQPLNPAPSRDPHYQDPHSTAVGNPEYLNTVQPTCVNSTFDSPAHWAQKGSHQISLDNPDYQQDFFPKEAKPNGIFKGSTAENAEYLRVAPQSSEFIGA

[3] = test system: Chorioallantoic membrane; assay: Potency index, ratio of sunitinib IC50 to test compound IC50 for antiangiogenic activity in Leghorn chicken embryo chorioallantoic membrane; format: functional, tissue-based; details: Gallus gallus
[4] = target: Vascular endothelial growth factor receptor 2 (Homo sapiens, UniProt P35968); format: cell-based
Chain of Vascular endothelial growth factor receptor 2 (P35968 whole entry): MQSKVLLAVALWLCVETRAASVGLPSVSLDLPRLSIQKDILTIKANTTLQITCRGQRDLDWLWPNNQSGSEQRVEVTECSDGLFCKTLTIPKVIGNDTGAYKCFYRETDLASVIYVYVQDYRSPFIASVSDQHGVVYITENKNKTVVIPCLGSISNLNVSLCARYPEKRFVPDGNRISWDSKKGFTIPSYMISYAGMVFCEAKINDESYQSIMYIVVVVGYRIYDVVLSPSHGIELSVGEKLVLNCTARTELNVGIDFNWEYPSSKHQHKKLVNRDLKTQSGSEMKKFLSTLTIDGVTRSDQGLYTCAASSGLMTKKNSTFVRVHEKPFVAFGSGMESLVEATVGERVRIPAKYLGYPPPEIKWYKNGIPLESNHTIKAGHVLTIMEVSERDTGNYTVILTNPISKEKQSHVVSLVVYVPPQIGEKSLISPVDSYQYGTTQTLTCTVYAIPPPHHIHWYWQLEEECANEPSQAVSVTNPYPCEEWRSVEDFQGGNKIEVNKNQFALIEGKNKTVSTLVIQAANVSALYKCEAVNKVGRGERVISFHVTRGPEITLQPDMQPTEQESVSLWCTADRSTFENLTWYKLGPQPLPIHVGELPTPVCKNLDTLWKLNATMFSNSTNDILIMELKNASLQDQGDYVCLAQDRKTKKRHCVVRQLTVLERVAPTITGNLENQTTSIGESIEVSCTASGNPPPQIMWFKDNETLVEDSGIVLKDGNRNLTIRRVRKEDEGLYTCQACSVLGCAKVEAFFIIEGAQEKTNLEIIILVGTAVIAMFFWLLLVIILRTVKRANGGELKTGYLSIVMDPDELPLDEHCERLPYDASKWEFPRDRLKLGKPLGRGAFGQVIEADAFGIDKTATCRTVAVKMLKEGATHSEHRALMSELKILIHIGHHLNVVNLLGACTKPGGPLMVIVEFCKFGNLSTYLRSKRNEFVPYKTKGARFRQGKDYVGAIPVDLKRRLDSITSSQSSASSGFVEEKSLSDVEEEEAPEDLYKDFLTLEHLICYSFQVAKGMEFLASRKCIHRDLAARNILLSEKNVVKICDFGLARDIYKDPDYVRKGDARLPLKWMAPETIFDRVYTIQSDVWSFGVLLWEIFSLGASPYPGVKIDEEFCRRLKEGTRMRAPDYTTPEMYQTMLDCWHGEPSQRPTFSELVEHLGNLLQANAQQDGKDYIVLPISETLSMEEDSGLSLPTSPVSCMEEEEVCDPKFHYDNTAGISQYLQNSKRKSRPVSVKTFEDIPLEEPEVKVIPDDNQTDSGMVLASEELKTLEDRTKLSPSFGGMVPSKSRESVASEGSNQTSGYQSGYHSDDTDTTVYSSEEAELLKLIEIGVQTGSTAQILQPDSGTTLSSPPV

[5] = test system: A-431; assay: Cytotoxicity against human A431 cells over-expressing EGFR; format: functional, cell-based
[6] = test system: Chorioallantoic membrane; assay: Antiangiogenic activity in Leghorn chicken embryo chorioallantoic membrane after 40 hrs by microscopic analysis; format: functional, tissue-based; details: Gallus gallus
[7] = test system: A10; assay: Induction of microtubule depolymerization in rat A10 cells after 18 hrs by indirect immunofluorescence method; format: functional, cell-based; details: A10, 18 h

Chain of Platelet-derived growth factor receptor beta (P09619 whole entry): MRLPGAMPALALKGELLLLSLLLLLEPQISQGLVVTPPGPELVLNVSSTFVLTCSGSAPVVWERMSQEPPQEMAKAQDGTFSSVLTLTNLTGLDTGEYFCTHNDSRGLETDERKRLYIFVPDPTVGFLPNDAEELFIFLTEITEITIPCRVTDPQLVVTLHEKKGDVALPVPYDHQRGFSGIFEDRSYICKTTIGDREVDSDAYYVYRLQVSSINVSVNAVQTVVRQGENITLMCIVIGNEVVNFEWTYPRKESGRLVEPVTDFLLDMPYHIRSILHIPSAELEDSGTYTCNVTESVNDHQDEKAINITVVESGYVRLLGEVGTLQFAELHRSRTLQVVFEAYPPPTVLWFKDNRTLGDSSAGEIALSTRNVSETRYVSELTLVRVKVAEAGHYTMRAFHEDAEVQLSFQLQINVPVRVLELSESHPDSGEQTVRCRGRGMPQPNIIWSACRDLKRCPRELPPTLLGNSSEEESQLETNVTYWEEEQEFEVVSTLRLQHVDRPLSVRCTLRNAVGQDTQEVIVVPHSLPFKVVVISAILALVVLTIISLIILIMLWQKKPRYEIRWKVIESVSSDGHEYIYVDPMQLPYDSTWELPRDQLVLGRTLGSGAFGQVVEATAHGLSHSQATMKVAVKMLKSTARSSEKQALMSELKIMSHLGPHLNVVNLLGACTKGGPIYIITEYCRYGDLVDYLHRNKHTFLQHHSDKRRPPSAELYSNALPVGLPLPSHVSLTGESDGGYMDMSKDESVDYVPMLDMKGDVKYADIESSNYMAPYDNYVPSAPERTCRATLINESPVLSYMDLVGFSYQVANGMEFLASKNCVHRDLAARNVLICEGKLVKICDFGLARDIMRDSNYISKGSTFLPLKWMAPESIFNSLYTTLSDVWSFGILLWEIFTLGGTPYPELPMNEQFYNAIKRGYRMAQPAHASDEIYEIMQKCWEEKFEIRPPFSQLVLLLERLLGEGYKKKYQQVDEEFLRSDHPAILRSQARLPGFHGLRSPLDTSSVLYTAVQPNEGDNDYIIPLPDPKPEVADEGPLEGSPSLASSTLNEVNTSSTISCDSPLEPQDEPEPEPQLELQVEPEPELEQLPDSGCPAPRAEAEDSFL

| SMILES | IC50 [1] [nM] | IC50 [2] [nM] | Ratio IC50 [3] | IC50 [4] [nM] | IC50 [5] [nM] | IC50 [6] [nM] | EC50 [7] [nM] |
| --- | --- | --- | --- | --- | --- | --- | --- |
| CCc1ccc(N(C)c2ncnc3occ(C)c23)cc1 | 28.9 | 4 | 4 | 7.8 | 1.4 | 287 |  |
| CCCN(c1ccc(OC)cc1)c1ncnc2occ(C)c12 | 38.9 | 7.1 | 4 | 12 | 2.3 | 301 |  |
| Cc1coc2ncnc(Nc3ccc([N+](=O)[O-])cc3)c12 | > 200 | > 200 |  | > 200 |  |  | > 10000 |
| Cc1coc2ncnc(N(C)c3ccc([N+](=O)[O-])cc3)c12 | > 200 | > 200 |  | > 200 | 433 | 1060 | > 10000 |
| CCN(c1ccc(OC)cc1)c1ncnc2occ(C)c12 | 51.4 | 92.5 |  | 67.3 | 3.4 | 812 |  |
| Cc1coc2ncnc(Nc3ccc(N(C)C)cc3)c12 | > 200 | > 200 |  | > 200 |  |  | > 10000 |
| COc1ccc(N(c2ncnc3occ(C)c23)C(C)C)cc1 | 42.6 | 10.1 |  | 23.4 | 4.8 | 480 |  |
